Measured values from patent EP2141163A1, “Substituted thiazolidinones, their production and utilisation as medicine” (Bayer Schering Pharma Aktiengesellschaft, priority 2008, dated 2010).
Like-named read-outs stand apart in the source and are kept apart here.

Experiments:
[1] = biological target: T1, PLK-1 (Homo sapiens, UniProt P53350); test: PLK-1 enzyme assay at 10 mM ATP (indirect HTRF assay); format: biochemical; conditions: read-out: Inhibition PLK-1 IC50 [M] (10 mM ATP)
T1 construct: Fusionsprotein bestehend aus GST und Plk (Kinase Domäne 33-345; MW 36 kDa, conc 0,8 µg/µl); GST; made in house; host or cells: Hi5 insect cells
Method: PLK Enzym-Assay (10 mM ATP)
Für den Kinaseassay wird aus Insektenzellen (Hi5) exprimiertes, durch Glutathion-Sepharose-Affinitätschromatographie und anschließender Gel-filtration (Suerdex 75) gereinigtes rekombinantes Fusionsprotein bestehend aus GST und Plk (Kinase Domäne 33-345; MW 36 kDa, conc 0,8 µg/µl) verwendet. Aliqots hiervon werden in flüssigem Stickstoff weggefroren und bei -80°C gelagert und nach dem Auftauen nur einmal verwendet.
Bei dem verwendeten Assay handelt es sich um einen indirekten HTRF-Assay, bei dem folgende Materialien und Verfahrensweisen zum Einsatz kamen. Als Substrat für die Kinasereaktion wird das biotinylierte Peptid Btn-Ahx-KKLNRTLSFAEPG-Amid x TFA, von Biosyntan, Probennr.: 6178.1 (C-Terminus in Amidform) verwendet. Hierbei handelt es sich um eine artifizielle Sequenz, die von keinem bekannten Protein abgeleitet wurde.
50 nl der in 100% Dimethylsulfoxid (DMSO) gelösten Testverbindungen (Endkonzentrationen : 0 µM und Konzentrationen im Bereich von 0,001 - 20 µM) werden mit 2 µl Enzym Arbeitslösung (0,039 ng/µl Plk-1 im Arbeitspuffer [25 mM MgCl2; 1mM DTT; 50 mM Hepes pH 7,0; 0,01% NP40; 1x Complete; 0,05% BSA] für 30 min vorinkubiert. Anschließend wird die Kinase-Reaktion durch Zugabe von 3 µl Substratlösung [16,7 mM Adenosintriphosphate (ATP) und 1,4 µM Substratpeptid (Biotin-Ttds- KKLNRTLSFAEPG -NH2)] in Arbeitspuffer gestartet, und nach 30 min durch Zugabe einer Abstopp-Lösung (100 mM EDTA, 100 mM Hepes pH 7,5, 800 mM Potassiumfluoride, 0,12% BSA, 0,4 µM SA-XLent (0,05 µM, von CIS bio international, Marcoule, Frankreich), Eu^3+ Cryptate-conjugated Rabbit anti-Mouse IgG (1,5 nM; ein mit Europiumkryptat markierter Anti-Maus-IgG-Antikörper von CIS bio international, Marcoule, Frankreich), 1 nM Anti-phospho-Serine Kinase (ein phospho-spezifischer Antikörper von Upstate Biotechnology, Dundee, Schottland), gestoppt, und bei 4°C über Nacht inkubiert. Danach wird die Menge des phosphorylierten Substratpeptids durch Messung des Resonanzenergietransfers vom Europium-markierten Antikörperkomplex zum Streptavidine-XLent bestimmt. Zu diesem Zweck wird die Fluoreszenzemission bei 620 nm und 665 nm nach Anregung bei 350 nm in einem HTRF-Messgerät, z. B. Rubystar (BMG Labtechnologies, Offenburg, Deutschland) oder Viewlux (Perkin-Elmer), bestimmt. Das Verhältnis der Emissionen bei 665 nm und bei 620 nm wird als Maß für die Menge des phosphorylierten Substratpeptids verwendet. Die Daten werden normalisiert (Enzymreaktion ohne Inhibitor = 0 % Inhibition, alle anderen Assaykomponenten, aber kein Enzym = 100 % Inhibition), und IC50-Werte werden durch einen 4 Parameter-Fit mit einer hauseigenen Software berechnet.

[2] = system: MCF-7; test: Proliferation assay (crystal violet staining), MCF-7; format: cell-based, human; conditions: read-out: Inhibition IC50 [M] (MCF-7)
Method: (§1) Kultivierte humane Tumorzellen (MCF7, […] menschliche Mammakarzinomazellen, bezogen von ATCC HTB22; NCI-H460, menschliche nicht kleinzellige Lungenkarzinomazellen, ATCC HTB-177; DU 145, hormonunabhängige menschliche Prostatakarzinomazellen, ATCC HTB-81; HeLa-MaTu, humane Cervixkarzinomazellen, bezogen von EPO-GmbH, Berlin,) werden in einer Dichte von 5000 (MCF7, DU145) bzw. 3000 (NCI-H460, HeLa-MaTu) Zellen/Messpunkt in einer 96-Loch Multititerplatte in 200 µl des entsprechenden Wachstumsmediums ausplattiert. Nach 24 Stunden werden die Zellen einer Platte (Nullpunkt-Platte) mit Kristallviolett gefärbt (s.u.), während das Medium der anderen Platten durch frisches Kulturmedium (200 µl), dem die Testsubstanzen in verschiedenen Konzentrationen (0 µM, sowie im Bereich 0,01 - 30 µM; die finale Konzentration des Lösungsmittels Dimethylsulfoxid beträgt 0,5%) zugesetzt sind, ersetzt. Die Zellen werden für 4 Tage in Anwesenheit der Testsubstanzen inkubiert. Die Zellproliferation wird durch Färbung der Zellen mit Kristallviolett bestimmt: Die Zellen werden durch Zugabe von 20 µl/Messpunkt einer 11%igen Glutaraldehyd-Lösung 15 min bei Raumtemperatur fixiert. Nach dreimaligem Waschen der fixierten Zellen mit Wasser werden die Platten bei Raumtemperatur getrocknet. Die Zellen werden durch Zugabe von 100 µl/Messpunkt einer 0,1%igen Kristallviolett-Lösung (pH durch Zugabe von Essigsäure auf pH3 eingestellt) gefärbt. Nach dreimaligem Waschen der gefärbten Zellen mit Wasser werden die Platten bei Raumtemperatur getrocknet. Der Farbstoff wird durch Zugabe von 100 µl/Messpunkt einer 10%igen Essigsäure-Lösung gelöst. Die Extinktion wird photometrisch bei einer Wellenlänge von 595 nm bestimmt. Die prozentuale Änderung des Zellwachstums wird durch Normalisierung der Messwerte auf die Extinktionwerte der Nullpunktplatte (=0%) und die Extinktion der unbehandelten (0 µM) Zellen (=100%) berechnet. IC50-Werte werden nach einer 4-Parameterkurvenanpassung mit Hilfe eines Firmeneigenen Computerprogramms berechnet.

[3] = system: DU145; test: Proliferation assay (crystal violet staining), DU145; format: cell-based, human; conditions: read-out: Inhibition IC50 [M] (DU145)
Method: as §1

[4] = system: NCI-H460; test: Proliferation assay (crystal violet staining), NCI-H460; format: cell-based, human; conditions: read-out: Inhibition IC50 [M] (NCI-H460)
Method: as §1

[5] = Homo sapiens, MCF7, 96 h, tumour cell proliferation, 4 days incubation
[6] = Homo sapiens, DU-145, 96 h, tumour cell proliferation, 4 days incubation
[7] = Homo sapiens, 96 h, tumour cell proliferation, 4 days incubation
[8] = tumour cell proliferation, 4 days incubation

T1 sequence (P53350 33-345): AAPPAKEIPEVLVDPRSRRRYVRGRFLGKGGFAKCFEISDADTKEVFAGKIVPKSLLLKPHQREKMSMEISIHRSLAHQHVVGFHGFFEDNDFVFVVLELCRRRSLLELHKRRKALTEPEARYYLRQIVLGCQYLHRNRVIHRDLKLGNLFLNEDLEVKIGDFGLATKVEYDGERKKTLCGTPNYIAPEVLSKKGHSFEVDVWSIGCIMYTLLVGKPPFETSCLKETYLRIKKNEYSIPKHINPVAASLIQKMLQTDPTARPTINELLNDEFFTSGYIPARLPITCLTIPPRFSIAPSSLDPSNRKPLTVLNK

## CCn1c(=O)c(=CNc2ccc3c(Cl)cn([C@H]4CC[C@H](N(C)C)CC4)c3c2)s/c1=C(/C#N)C(=O)NCC#N [B165]
[1]
  IC50: 1.3e-09 M
[2]; [5]
  IC50: 1.7e-07 M
[3]; [6]
  IC50: 1.8e-07 M
[4]; [7]
  IC50: 6.1e-07 M

## CCN1CCCC1Cn1ccc2ccc(NC=c3sc(=C(C#N)C(=O)NCC(F)(F)F)n(CC)c3=O)cc21 (stereo not drawn) [B58]
[1]
  IC50: 2e-08 M
[2]; [5]
  IC50: 3.7e-07 M
[3]; [6]
  IC50: 3.2e-07 M
[4]; [7]
  IC50: 4.8e-07 M

## CCn1c(=C(C#N)C(=O)NCC#N)sc(=CNc2ccc3c(c2)c(C2CCN(C4CC4)CC2)cn3C)c1=O [B115]
[1]
  IC50: 1.3e-09 M
[2]; [5]
  IC50: 1.1e-07 M
[3]; [6]
  IC50: 3.7e-08 M
[4]; [7]
  IC50: 1.3e-07 M

## CCn1c(=C(C#N)C(=O)NCC#N)sc(=CNc2ccc3cn(C4CCN(C(C)C)CC4)nc3c2)c1=O [B102]
[1]
  IC50: 2.2e-08 M
[2]; [5]
  IC50: 1.9e-07 M
[3]; [6]
  IC50: 2.8e-07 M
[4]; [7]
  IC50: 6.2e-07 M

## CCn1c(=C(C#N)C(=O)NCC(F)(F)F)sc(=CNc2ccc3ccn(CCN4CCCC4)c3c2)c1=O [B132]
[1]
  IC50: 3.3e-09 M
[2]; [5]
  IC50: 4.5e-07 M
[3]; [6]
  IC50: 2.2e-07 M
[4]; [7]
  IC50: 4e-07 M

## CCn1c(=O)c(=CNc2ccc3c(c2)c(C2CCN(C4CC4)CC2)cn3C)s/c1=C(/C#N)C(=O)NCC(F)(F)F [B123]
[1]
  IC50: 1.2e-08 M
[2]; [5]
  IC50: 6.2e-07 M
[3]; [6]
  IC50: 2.3e-07 M
[4]; [7]
  IC50: 5e-07 M

## CCn1c(=O)c(=CNc2ccc3ccn(C4CCN(C)CC4)c3c2)s/c1=C(/C#N)C(=O)NCC(F)(F)F [B03, (Z,E/Z)-2-Cyan-2-[3-ethyl-5-[[[1-(1-methyl-4-piperidinyl)-1H-indol-6-yl]amino]methylen]-4-oxo-2-thiazolidinyliden]-N-(2,2,2-trifluorethyl)acetamid]
[1]
  IC50: 1.6e-09 M
[2]; [8]
  IC50: 1.4e-07 M
[3]; [8]
  IC50: 5.1e-08 M
[4]; [8]
  IC50: 9.6e-08 M

## CCn1c(=C(C#N)C(=O)NCC(F)(F)F)sc(=CNc2ccc3ccn(C4CCN(CC(N)=O)CC4)c3c2)c1=O [B71]
[1]
  IC50: 8.2e-09 M
[2]; [5]
  IC50: 1.4e-07 M
[3]; [6]
  IC50: 1.2e-07 M
[4]; [7]
  IC50: 2.1e-07 M

## CCn1c(=O)c(=CNc2ccc3ncn(C4CCN(C)CC4)c3c2)s/c1=C(/C#N)C(=O)NCC(F)(F)F [B147]
[1]
  IC50: 3.1e-09 M
[2]; [5]
  IC50: 2.4e-07 M
[3]; [6]
  IC50: 1.3e-07 M
[4]; [7]
  IC50: 2.4e-07 M

## CCn1c(=C(C#N)C(=O)NCC(F)(F)F)sc(=CNc2ccc3c(c2)N(C2CCN(C)CC2)CC3)c1=O [B01]
[1]
  IC50: 5.7e-09 M
[2]; [5]
  IC50: 4.4e-07 M
[3]; [6]
  IC50: 1.3e-07 M
[4]; [7]
  IC50: 1.9e-07 M

## CCn1c(=C(C#N)C(=O)NCC(F)(F)F)sc(=CNc2cccc(CCN3CCCC3)c2)c1=O [Beispiel 30 aus PCT/EP2005/013418, reference compound]
[1]; comparison with prior art (Tabelle 3)
  IC50: 1.1e-07 M
[2]; Homo sapiens, MCF7, comparison with prior art (Tabelle 4)
  IC50: 7e-07 M
[3]; Homo sapiens, DU-145, comparison with prior art (Tabelle 4)
  IC50: 6e-07 M
[4]; Homo sapiens, comparison with prior art (Tabelle 4)
  IC50: 9e-07 M

## CCn1c(=O)c(=CNc2ccc3c(c2)c(CCN2CCCC2)cn3C)s/c1=C(/C#N)C(=O)NCC(F)(F)F [B35]
[1]
  IC50: 5.9e-09 M
[2]; [5]
  IC50: 6.4e-07 M
[3]; [6]
  IC50: 1.8e-07 M
[4]; [7]
  IC50: 3.3e-07 M

## CCn1c(=O)c(=CNc2ccc3ccn(C4CCN(C)CC4)c3c2)s/c1=C(/C#N)C(=O)NC(c1ccco1)C(F)(F)F (stereo not drawn) [B176]
[1]
  IC50: 6.2e-08 M
[2]; [5]
  IC50: 1.2e-07 M
[3]; [6]
  IC50: 2.1e-07 M
[4]; [7]
  IC50: 3.9e-07 M

## CCn1c(=O)c(=CNc2ccc3ccn([C@H]4CCCC[C@H]4N(C)C)c3c2)s/c1=C(/C#N)C(=O)NCC#N (relative stereo) [B193]
[1]
  IC50: 1.4e-08 M
[2]; [5]
  IC50: 1.8e-07 M
[3]; [6]
  IC50: 1.8e-07 M
[4]; [7]
  IC50: 2.6e-07 M

## CCn1c(=C(C#N)C(=O)NCC#N)sc(=CNc2ccc3ccn(C4CCN(C)CC4)c3c2)c1=O [B04]
[1]
  IC50: 2.9e-09 M
[2]; [5]
  IC50: 7.2e-08 M
[3]; [6]
  IC50: 2.9e-08 M
[4]; [7]
  IC50: 1.4e-07 M

## CCn1c(=O)c(=CNc2ccc3c(Cl)cn(C4CCN(C)CC4)c3c2)s/c1=C(/C#N)C(=O)NCC#N [B153]
[1]
  IC50: 1e-09 M
[2]; [5]
  IC50: 4.2e-07 M
[3]; [6]
  IC50: 1.4e-07 M
[4]; [7]
  IC50: 5.9e-07 M

## CCn1c(=C(C#N)C(=O)NC(C)(C)CO)sc(=CNc2ccc3ccn(C4CCN(C)CC4)c3c2)c1=O [B06]
[1]
  IC50: 1e-08 M
[2]; [5]
  IC50: 2.4e-07 M
[3]; [6]
  IC50: 1.2e-07 M
[4]; [7]
  IC50: 1.5e-07 M

## CCn1c(=O)c(=CNc2ccc3c(C4CCN(C)CC4)cn(C)c3c2)s/c1=C(/C#N)C(=O)NCC#N [B130]
[1]
  IC50: 1e-09 M
[2]; [5]
  IC50: 1.4e-07 M
[3]; [6]
  IC50: 8.4e-08 M
[4]; [7]
  IC50: 3.7e-07 M

## CCn1c(=O)c(=CNc2ccc3ccn(C4CC(C)(C)N(C)C(C)(C)C4)c3c2)s/c1=C(/C#N)C(=O)NCC#N [B162]
[1]
  IC50: 3.7e-09 M
[2]; [5]
  IC50: 1.4e-07 M
[3]; [6]
  IC50: 3.5e-08 M
[4]; [7]
  IC50: 3.7e-08 M

## CCCN1CCC(c2cn(CC)c3ccc(NC=c4sc(=C(C#N)C(=O)NCC#N)n(CC)c4=O)cc23)CC1 [B109]
[1]
  IC50: 3.5e-09 M
[2]; [5]
  IC50: 1.4e-07 M
[3]; [6]
  IC50: 5.4e-08 M
[4]; [7]
  IC50: 1.6e-07 M

## CCn1c(=O)c(=CNc2ccc3c(C(=O)C(C)(C)C)cn(C4CCN(C)CC4)c3c2)s/c1=C(/C#N)C(=O)NCC#N [B183]
[1]
  IC50: 4.2e-09 M
[2]; [5]
  IC50: 1.6e-07 M
[3]; [6]
  IC50: 1.3e-07 M
[4]; [7]
  IC50: 3.2e-07 M
